{
  "source": "patent US20240181125A1",
  "about": "“COMPOSITIONS AND METHODS FOR SCARLESS WOUND HEALING IN DIABETES” (Washington University, priority 2022, published 2024)",
  "key": {"[1]": {"test_system": "dermal wounds of db/db mice", "test": "Example 3 dermal wound closure, subcutaneous ECG/gel", "format": "in vivo", "description": "db/db (Diabetic, […]) mice were used as an animal wound model. Dermal wounds were created using sterile 5 mm biopsy punches to expose the underlying muscle fascia, followed by subcutaneous injection of either control gel (6 wt %) or ECG/gel (50 μg/mL ECG in 6 wt % gel). In addition, a subgroup of the dermally-wounded mice was left untreated as controls. The dermal wounds of all mice were observed every other day until recovery using a digital camera to record successive images as well as measuring wound size using digital calipers. Image analysis using ImageJ was also performed to do a blind measurement of wound size. Subgroups of the mice were sacrificed at three different time points: day 3, day 8, and day 16. Skin samples were collected from the sacrificed mice for histology, immunohistochemistry analysis, and Western blot studies."}, "[2]": {"test": "In vitro release of peptide from hydrogel", "format": "physicochemical", "details": "loadings 10, 20, 50 μg/mL; three weeks", "description": "To characterize the ECG release properties of the NIPAAm-based hydrogels disclosed herein, the following experiments were conducted. Hydrogel samples were synthesized with varying levels of ECG loading: 10 μg/mL, 20 μg/mL, and 50 μg/mL. The cumulative release of ECG from the hydrogel samples was assessed over a three-week period.\nWound dressings were fabricated by encapsulating PTβR2I in the hydrogel solution at 4° C. Briefly, PTβR2I solution was mixed with 6 wt. % hydrogel solution to reach final PTβR2I concentrations of 10 μg/mL, 20 μg/mL and 50 μg/mL. The mixtures were stirred at 4° C. for 12 hours. To determine PTβR2I release kinetics, the mixtures were first incubated at 37° C. to gel. After 1 hour, the supernatant was replaced by a release medium (DPBS with 1% P/S). The medium was then collected at pre-determined time points for 21 days, and a fresh release medium was added after each collection. The concentration of the released PTβR2I was determined by measuring the fluorescence intensity and calculating the corresponding concentration using a standard curve. The bioactivity of the released PTβR2I was evaluated by its ability to bind to the TβR2 on the HDFs. […] After 2 hours of incubation, the cells were washed three times with DPBS, and the fluorescence intensity was measured using a microplate reader (excitation/emission=485/535 nm)."}, "HDF, HaCaT, HAECs, BMM": {"test_system": "HDF, HaCaT, HAECs, BMM", "test": "Example 4 in vitro survival, migration, cytokine and growth factor secretion with TGF-beta I and high glucose", "format": "cell-based, human, mouse", "text": "Human dermal fibroblasts (HDF), human skin keratinocytes (HaCaT), human artery endothelial cells (HAECs), and mouse bone marrow-derived macrophages (BMM) were used to test the in vitro survival, migration, secretion of inflammatory cytokines, and angiogenic growth factors in the presence of TGF-beta I and high glucose content.\nFIG. 4B is a Western blot of p38 and GAPDH (control) expression for dermal fibroblasts under high glucose levels. Untreated cells (control) were compared with cells exposed to 10 ng/ml of TGFβ with ECG treatments of 0 μg/mL, 10 μg/mL, and 1 μg/mL."}, "TGFβ1/p38 pathway": {"test_system": "TGFβ1/p38 pathway", "test": "Immunoblotting of p-p38 in HDFs", "format": "cell-based, human", "details": "high glucose", "description": "For in vitro tests, protein lysates were collected from HDFs. Pre-cooled cell scrapers were used to detach the cells, and the cells were re-suspended in RIPA lysis buffer with the inhibitor cocktail. For in vivo tests, wound skin tissues were washed three times with pre-cooled DPBS, dissected into small pieces, and re-suspended in RIPA lysis buffer containing protease and phosphatase inhibitors. Homogenization was then performed thereafter with an ultrasonic processor (Cole Parmer). After centrifugation at 12,000 g for 20 min, the supernatants were collected, and protein concentrations were measured using a Bradford protein assay kit (Bio-rad).\nThe protein samples were separated by 10% Mini-PROTEAN TGX stain-free precast gels (Bio-rad) and transferred onto an immune-blot PVDF membrane. The blots were washed three times with DPBS containing 0.1% Tween 20 (PBST), blocked with 5% milk powder in PBST buffer for 40 min, and incubated with primary antibodies at specific dilutions overnight at 4° C. The primary antibodies included rabbit GAPDH antibody (1:5000, Cell signaling), rabbit anti-a-smooth muscle actin (α-SMA) antibody (1:2000, Cell signaling), rabbit anti-phospho-Smad2(Ser465/467)/Smad3 (Ser423/425) (1:500, Cell signaling), and rabbit anti-phospho-p38 (1:500, Cell signaling). The membranes were washed three times with PBST and incubated with horseradish peroxidase (HRP)-conjugated secondary antibodies (1:2500). Immunoblots were then washed with PBST and detected with a WesternBright HRP substrate detection kit (Advansta). The ChemiDoc XPS+system (Bio-rad) was used to image the blots."}},
  "note": "“Also recorded” adds a separate entry of the source.",
  "data": [
    {"molecule": "ECGLLPVGRPDRVWRLCK", "values": [
      {"measurement": "p38 expression in wound tissues", "setting": "[1]; Western blot vs control gel", "value": "suppressed; also recorded: downregulated"},
      {"measurement": "increase of blood vessel density and mature blood vessel density vs control", "setting": "[1]; day 8", "value": "up to 4 fold"},
      {"measurement": "duration of initial rapid release of ECG from hydrogel", "setting": "[2]", "value": "3 to 4", "unit": "days"},
      {"measurement": "survival and migration of keratinocytes, fibroblasts, and endothelial cells", "setting": "HDF, HaCaT, HAECs, BMM; presence of TGF-beta I", "value": "improved"},
      {"measurement": "angiogenic growth factor secretions", "setting": "HDF, HaCaT, HAECs, BMM; various cell types", "value": "promoted"},
      {"measurement": "pro-inflammatory cytokines expression", "setting": "HDF, HaCaT, HAECs, BMM; various cell types", "value": "suppressed"}
    ]},
    {"molecule": "Oc1ccc(-c2nc(-c3ccncc3)c(-c3ccc(F)cc3)[nH]2)cc1", "note": "[SB202190, reference compound]", "values": [
      {"measurement": "p-p38 expression", "setting": "TGFβ1/p38 pathway; with TGFβ1", "value": "notably downregulated"}
    ]},
    {"molecule": "TGFβ1: growth factor used as stimulus, 10 ng/ml", "values": [
      {"measurement": "increase in baseline phosphorylation of p38 relative to no TGFβ1 group", "setting": "TGFβ1/p38 pathway", "value": "~4", "unit": "fold"}
    ]}
  ]
}
